According to patent US9723840B2 (SYNGENTA PARTICIPATIONS AG, priority 2013, dated 2017):

How the values were obtained:
Format in all cases: in vivo
Zea mays [1] = assay: Post-emergence herbicidal activity, ZEAMX; parameters: key: 5=total damage to plant; 0=no damage to plant; settings: 1000 g/Ha, post-emergence spray (8 days cultivation), evaluated after 13 days, scale 0-5
Protocol: (§1) Seeds of a variety of test species were sown in standard soil in pots. After 8 days cultivation (post-emergence) under controlled conditions in a glasshouse (at 24/16° C., day/night; 14 hours light; 65% humidity), the plants were sprayed with an aqueous spray solution derived from the formulation of the technical active ingredient in acetone/water (50:50) solution containing 0.5% Tween 20 (polyoxyethelyene sorbitan monolaurate, CAS RN 9005-64-5). The test plants were then grown in a glasshouse under controlled conditions (at 24/16° C., day/night; 14 hours light; 65% humidity) and watered twice daily. After 13 days, the test was evaluated (5=total damage to plant; 0=no damage to plant).

Zea mays [2] = assay: Pre-emergence herbicidal activity, ZEAMX; settings: 1000 g/Ha, pre-emergence spray, evaluated after 13 days, scale 0-5
Protocol: as §1, with “After” for “After 8 days”, “for one day (pre-emergence)” for “(post-emergence)”

Alopecurus myosuroides [3] = assay: Post-emergence herbicidal activity, ALOMY; parameters: key: 5=total damage to plant; 0=no damage to plant; settings: 1000 g/Ha, post-emergence spray (8 days cultivation), evaluated after 13 days, scale 0-5
Protocol: as §1

Alopecurus myosuroides [4] = assay: Pre-emergence herbicidal activity, ALOMY; settings: 1000 g/Ha, pre-emergence spray, evaluated after 13 days, scale 0-5
Protocol: as §1, with “After” for “After 8 days”, “for one day (pre-emergence)” for “(post-emergence)”

Echinochloa crus-galli [5] = assay: Pre-emergence herbicidal activity, ECHCG; parameters: key: 5=total damage to plant; 0=no damage to plant; settings: 1000 g/Ha, pre-emergence spray, evaluated after 13 days, scale 0-5
Protocol: as §1, with “After” for “After 8 days”, “for one day (pre-emergence)” for “(post-emergence)”

Amaranthus retroflexus [6] = assay: Pre-emergence herbicidal activity, AMARE; parameters: key: 5=total damage to plant; 0=no damage to plant; settings: 1000 g/Ha, pre-emergence spray, evaluated after 13 days, scale 0-5
Protocol: as §1, with “After” for “After 8 days”, “for one day (pre-emergence)” for “(post-emergence)”

Abutilon theophrasti [7] = assay: Pre-emergence herbicidal activity, ABUTH; parameters: key: 5=total damage to plant; 0=no damage to plant; settings: 1000 g/Ha, pre-emergence spray, evaluated after 13 days, scale 0-5
Protocol: as §1, with “After” for “After 8 days”, “for one day (pre-emergence)” for “(post-emergence)”

Abutilon theophrasti [8] = assay: Post-emergence herbicidal activity, ABUTH; parameters: key: 5=total damage to plant; 0=no damage to plant; settings: 1000 g/Ha, post-emergence spray (8 days cultivation), evaluated after 13 days, scale 0-5
Protocol: as §1

Setaria faberi [9] = assay: Pre-emergence herbicidal activity, SETFA; parameters: key: 5=total damage to plant; 0=no damage to plant; settings: 1000 g/Ha, pre-emergence spray, evaluated after 13 days, scale 0-5
Protocol: as §1, with “After” for “After 8 days”, “for one day (pre-emergence)” for “(post-emergence)”

Amaranthus retroflexus [10] = assay: Post-emergence herbicidal activity, AMARE; parameters: key: 5=total damage to plant; 0=no damage to plant; settings: 1000 g/Ha, post-emergence spray (8 days cultivation), evaluated after 13 days, scale 0-5
Protocol: as §1

Setaria faberi [11] = assay: Post-emergence herbicidal activity, SETFA; parameters: key: 5=total damage to plant; 0=no damage to plant; settings: 1000 g/Ha, post-emergence spray (8 days cultivation), evaluated after 13 days, scale 0-5
Protocol: as §1

Echinochloa crus-galli [12] = assay: Post-emergence herbicidal activity, ECHCG; parameters: key: 5=total damage to plant; 0=no damage to plant; settings: 1000 g/Ha, post-emergence spray (8 days cultivation), evaluated after 13 days, scale 0-5
Protocol: as §1

SMILES | ZEAMX damage score, application post-emergence (Zea mays [1]) | ZEAMX damage score, application pre-emergence (Zea mays [2]) | ALOMY damage score, application post-emergence (Alopecurus myosuroides [3]) | ALOMY damage score, application pre-emergence (Alopecurus myosuroides [4]) | ECHCG damage score, application pre-emergence (Echinochloa crus-galli [5]) | AMARE damage score, application pre-emergence (Amaranthus retroflexus [6]) | ABUTH damage score, application pre-emergence (Abutilon theophrasti [7]) | ABUTH damage score, application post-emergence (Abutilon theophrasti [8]) | SETFA damage score, application pre-emergence (Setaria faberi [9]) | AMARE damage score, application post-emergence (Amaranthus retroflexus [10]) | SETFA damage score, application post-emergence (Setaria faberi [11]) | ECHCG damage score, application post-emergence (Echinochloa crus-galli [12])
CC1C(O)N(c2cc(C(C)(F)F)c(Cl)nn2)C(=O)N1C (stereo not drawn) [Example A11] | 5 | 4 | 5 | 4 | 5 | 5 | 5 | 5 | 5 | 5 | 5 | 5
CON1C(=O)N(c2cc(C(C)(C)F)c(Cl)nn2)C(O)C1C (stereo not drawn) [Example A6, 1-[6-chloro-5-(1-fluoro-1-methyl-ethyl)pyridazin-3-yl]-5-hydroxy-3-methoxy-4-methyl-imidazolidin-2-one] | 5 | 3 | 4 | 3 | 4 | 5 | 5 | 5 | 4 | 5 | 5 | 5
CC1C(O)N(c2ccc(C(=O)NC(C)(C)C#N)nn2)C(=O)N1C (stereo not drawn) [Example A13] | 1 | 3 | 4 | 4 | 4 | 5 | 5 | 5 | 4 | 5 | 5 | 3
CCOC1C(O)N(c2cc(C(F)(F)F)cnn2)C(=O)N1C (stereo not drawn) [Example A24] |  | 2 |  |  | 4 | 5 | 5 |  | 5 |  |  | 5
CCOC1C(O)N(c2cc(C(F)(F)F)c(Cl)nn2)C(=O)N1C (stereo not drawn) [Example A23] | 3 | 2 |  |  | 5 | 5 | 5 | 5 | 5 | 5 | 5 | 5
CC1C(O)N(c2cc(C(F)(F)F)cnn2)C(=O)N1C (stereo not drawn) [Example A21] | 5 | 3 |  |  | 5 | 5 | 5 | 5 | 5 | 5 | 5 | 5
CC1C(O)N(c2cc(C(F)(F)F)c(Cl)nn2)C(=O)N1C (stereo not drawn) [Example A16] | 3 | 3 |  |  | 5 | 5 | 5 | 5 | 3 | 5 | 5 | 5
